From US20160024083A1, “COMPOUNDS AND METHODS FOR TREATING CANCERS” (HEALTH RESEARCH, INC., priority 2013, published 2016)

Legend:
[1] = Aqueous solubility (pH 7.4); assay type: physicochemical
[2] = Metabolic stability in the presence of mouse liver microsomes; assay type: in vitro ADME; settings: for metabolic stability, % left: after 30 minute incubation with mouse liver microsome
[3] = classification (Stable/Moderate/Unstable), lines whose second value is in %
[4] = in %, table title: Metabolic stability and solubility, % left after 30 minute incubation with mouse liver microsome

Structure (SMILES)	Aqueous Solubility Classification [1]	Aqueous Solubility Classification ([1]; pH 7.4)	metabolic stability, % left [2] [%]	Metabolic stability, % left after 30 min with mouse liver microsomes [2, 3]	Metabolic stability, % left after 30 min with mouse liver microsomes [2, 4] [%]	Aqueous Solubility (pH 7.4) ([1]; pH 7.4) [μM]	Aqueous Solubility Classification [2, 3]
O=C1COc2c(ccc3c2c2ncccc2n3CCCF)N1 [PLA1183]	Moderate	Low					
O=c1[nH]c2ccc3c(c4ccccc4n3CCCF)c2o1 [PLA1190]		Low	70	Stable	77	3.5	
CC(=O)c1ccc2c(c1)c1c(C(N)=O)cccc1n2CCCF [PLA1191]		High		Moderate	30	130	
O=c1c2ccc3c(c2ccn1CCO)c1ccccc1n3CCCF [PLA1192]		Moderate			27	15	Moderate
O=c1c2ccc3c(c2ccn1CCN1CCCC1)c1ccccc1n3CCCF [PLA1193]		High		Unstable	3	140	
CN1Cc2c(ccc3c2c2ccccc2n3CCC(F)F)C1=O [PLA1194]		Moderate			28	18	Moderate
N#Cc1cccc2c1c1c3cc[nH]c(=O)c3ccc1n2CCCF [PLA1195]		Low		Moderate	63	2.7	
NC(=O)c1cccc2c1c1c3cc[nH]c(=O)c3ccc1n2CCCF [PLA1196]		Moderate			65	26	Moderate
O=C1CCc2c1ccc1c2c2c(F)cccc2n1CCCF [PLA1197]		Low	77	Stable	73	4.0	
CC(=O)c1ccc2c(c1)c1c3c(ccc1n2CCCF)C(=O)CC3 [PLA1198]		Low		Moderate	46	2.5	
O=C1CCc2c1ccc1c2c2cc(Br)ccc2n1CCCF [PLA1199]		Low		Moderate	42	2.3	
